We go through twelve compounds from patent publication US11427548B2 (Arvinas Operations, Inc., priority 2015, dated 2022).

In this assay the target is T1, Androgen Receptor (Homo sapiens, UniProt P10275).
T1 construct: endogenous in cells; host or cells: VCaP cells
T1 sequence (P10275 1-920): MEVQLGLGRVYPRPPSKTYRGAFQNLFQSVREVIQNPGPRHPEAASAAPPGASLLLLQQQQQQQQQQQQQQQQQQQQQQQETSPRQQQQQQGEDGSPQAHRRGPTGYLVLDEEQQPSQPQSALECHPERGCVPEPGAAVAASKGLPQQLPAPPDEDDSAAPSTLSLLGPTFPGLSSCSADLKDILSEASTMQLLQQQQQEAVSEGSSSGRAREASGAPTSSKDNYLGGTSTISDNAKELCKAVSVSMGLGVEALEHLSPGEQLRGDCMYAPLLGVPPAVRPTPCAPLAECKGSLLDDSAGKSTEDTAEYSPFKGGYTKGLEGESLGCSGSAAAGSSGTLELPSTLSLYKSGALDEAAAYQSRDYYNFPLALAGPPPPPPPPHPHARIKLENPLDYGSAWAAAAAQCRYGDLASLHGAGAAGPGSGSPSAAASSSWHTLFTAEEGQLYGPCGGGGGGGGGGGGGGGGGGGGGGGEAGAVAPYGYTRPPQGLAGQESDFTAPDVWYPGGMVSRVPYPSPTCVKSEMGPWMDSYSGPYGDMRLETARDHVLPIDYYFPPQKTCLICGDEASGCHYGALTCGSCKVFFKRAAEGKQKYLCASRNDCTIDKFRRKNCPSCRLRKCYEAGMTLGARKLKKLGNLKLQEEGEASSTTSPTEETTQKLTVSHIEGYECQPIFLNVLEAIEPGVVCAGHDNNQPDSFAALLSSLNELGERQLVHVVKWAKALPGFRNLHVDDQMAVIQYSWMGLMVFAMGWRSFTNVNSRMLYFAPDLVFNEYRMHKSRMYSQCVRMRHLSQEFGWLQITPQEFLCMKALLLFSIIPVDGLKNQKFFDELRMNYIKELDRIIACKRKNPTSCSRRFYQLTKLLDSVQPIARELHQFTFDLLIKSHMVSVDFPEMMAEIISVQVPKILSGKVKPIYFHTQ
Put plainly: Androgen Receptor ELISA assay (PathScan AR ELISA) in VCaP cells: AR degradation, Dmax and DC50. The class given is cell-based. The conditions noted are these: Table 36; for DC50: read-out: VCaP DC50; for Dmax: VCaP. The gist of the method: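 After 24 h exposure of VCaP cells (charcoal-stripped serum, 0.1 nM R1881 agonist, 0.1% DMSO) to seven half-log compound concentrations, residual AR in lysates was measured by PathScan ELISA (TMB absorbance, 450 nm). Cells were plated at 30,000/well and grown at least 3 days beforehand.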
In general terms: ELISA stands for enzyme-linked immunosorbent assay.

The mark [1] stands for this setting: VCaP cells, read-out: VCaP Dmax (%).
Setting [2] is: read-out: VCaP Dmax (%), VCaP cells.

The DC50 is the midpoint of the concentration-degradation curve. In general, Dmax refers to the largest share of the target that was removed.

Structures are written as SMILES. Where two headings read alike, the source gives them in different places. Some results are limits rather than exact numbers.

On to `Cc1ncsc1-c1ccc([C@H](C)NC(=O)[C@@H]2C[C@@H](O)CN2C(=O)[C@@H](NC(=O)CN2CCN(CCCc3ccc(C(=O)N[C@H]4C(C)(C)[C@H](Oc5ccc(C#N)c(Cl)c5)C4(C)C)cc3)CC2)C2COC2)cc1` [Example 751, (2S,4R)-1-((S)-2-(2-(4-(3-(4-(((1r,3r)-3-(3-chloro-4-cyanophenoxy)-2,2,4,4-tetramethylcyclobutyl)carbamoyl)phenyl)propyl)piperazin-1-yl)acetamido)-2-(oxetan-3-yl)acetyl)-4-hydroxy-N-((S)-1-(4-(4-methylthiazol-5-yl)phenyl)ethyl)pyrrolidine-2-carboxamide], for which the DC50 (VCaP cells) was more than 501 nM. Also, the maximal degradation (Dmax) under setting [1] is less than 25%.
Take `Cc1ncsc1-c1ccc(CNC(=O)[C@@H]2C[C@@H](O)CN2C(=O)[C@H](C(C)C)N2Cc3ccccc3C2=O)c(N2CCN(CCCc3ccc(C(=O)N[C@H]4C(C)(C)[C@H](Oc5ccc(C#N)c(Cl)c5)C4(C)C)cc3)CC2)c1` [Example 752, (2S,4R)-N-(2-(4-(3-(4-(((1r,3r)-3-(3-chloro-4-cyanophenoxy)-2,2,4,4-tetramethylcyclobutyl)carbamoyl)phenyl)propyl)piperazin-1-yl)-4-(4-methylthiazol-5-yl)benzyl)-4-hydroxy-1-((S)-3-methyl-2-(1-oxoisoindolin-2-yl)butanoyl)pyrrolidine-2-carboxamide]: the DC50 (VCaP cells) is less than 50 nM. Further, the maximal degradation (Dmax) under setting [1] lay in the range of 51 to 70%.
Regarding `Cc1ncsc1-c1ccc(CNC(=O)[C@@H]2C[C@@H](O)CN2C(=O)[C@H](C(C)C)N2Cc3ccccc3C2=O)c(N2CCN(CCCc3ccc(C(=O)N[C@H]4C(C)(C)[C@H](Oc5ccc(C#N)c(C(F)(F)F)c5)C4(C)C)cc3)CC2)c1` [Example 753, (2S,4R)-N-(2-(4-(3-(4-(((1r,3r)-3-(4-cyano-3-(trifluoromethyl)phenoxy)-2,2,4,4-tetramethylcyclobutyl)carbamoyl)phenyl)propyl)piperazin-1-yl)-4-(4-methylthiazol-5-yl)benzyl)-4-hydroxy-1-((S)-3-methyl-2-(1-oxoisoindolin-2-yl)butanoyl)pyrrolidine-2-carboxamide], under “VCaP cells”, the DC50 was less than 50 nM. Moreover, the Dmax under setting [1] was 51 to 70%.
As to `CC(C)[C@@H](C(=O)N1C[C@H](O)C[C@H]1C(=O)NCc1ccc(Cl)cc1N1CCN(CCCc2ccc(C(=O)N[C@H]3C(C)(C)[C@H](Oc4ccc(C#N)c(Cl)c4)C3(C)C)cc2)CC1)N1Cc2ccccc2C1=O` [Example 754, (2S,4R)-N-(4-chloro-2-(4-(3-(4-(((1r,3r)-3-(3-chloro-4-cyanophenoxy)-2,2,4,4-tetramethylcyclobutyl)carbamoyl)phenyl)propyl)piperazin-1-yl)benzyl)-4-hydroxy-1-((S)-3-methyl-2-(1-oxoisoindolin-2-yl)butanoyl)pyrrolidine-2-carboxamide], for the setting “VCaP cells”, the 50% degradation concentration (DC50) was more than 501 nM. Also, the Dmax under setting [1] is less than 25%.
For `Cc1ncsc1-c1ccc([C@H](C)NC(=O)[C@@H]2C[C@@H](O)CN2C(=O)[C@@H](NC(=O)CCCCc2ccc(C(=O)N[C@H]3C(C)(C)[C@H](Oc4ccc(C#N)c(Cl)c4)C3(C)C)cc2)C(C)(C)C)cc1` [Example 755, (2S,4R)-1-((S)-2-(5-(4-(((1r,3S)-3-(3-chloro-4-cyanophenoxy)-2,2,4,4-tetramethylcyclobutyl)carbamoyl)phenyl)pentan-amido)-3,3-dimethylbutanoyl)-4-hydroxy-N-((S)-1-(4-(4-methylthiazol-5-yl)phenyl)ethyl)pyrrolidine-2-carboxamide] the same measures were more than 501 nM and 26 to 50%.
For `Cc1ncsc1-c1ccc([C@H](C)NC(=O)[C@@H]2C[C@@H](O)CN2C(=O)[C@@H](NC(=O)CCCCCCCCc2ccc(C(=O)N[C@H]3C(C)(C)[C@H](Oc4ccc(C#N)c(Cl)c4)C3(C)C)cc2)C(C)(C)C)cc1` [Example 756, (2S,4R)-1-((S)-2-(9-(4-(((1r,3r)-3-(3-chloro-4-cyanophenoxy)-2,2,4,4-tetramethylcyclobutyl)carbamoyl)phenyl)nonan-amido)-3,3-dimethylbutanoyl)-4-hydroxy-N-((S)-1-(4-(4-methylthiazol-5-yl)phenyl)ethyl)pyrrolidine-2-carboxamide] the same measures were 51 to 500 nM and 51 to 70%.
For `CC(C)(C)[C@H](NC(=O)COCCN1CCN(c2ccc(C(=O)N[C@H]3C(C)(C)[C@H](Oc4ccc(C#N)c(Cl)c4)C3(C)C)cn2)CC1)C(=O)N1C[C@H](O)C[C@H]1C(=O)NCc1ccc(C2CC2)cc1` [Example 757, N-((1r,3r)-3-(3-chloro-4-cyanophenoxy)-2,2,4,4-tetramethylcyclobutyl)-6-(4-(2-(2-(((S)-1-((2S,4R)-2-((4-cyclopropylbenzyl)car-bamoyl)-4-hydroxypyrrolidin-1-yl)-3,3-dimethyl-1-oxobutan-2-yl)amino)-2-oxoethoxy)ethyl)pipera-zin-1-yl)nicotinamide] the same measures were more than 501 nM and 26 to 50%.
Take `CC(C)(C)[C@H](NC(=O)COCCN1CCN(c2ccc(C(=O)N[C@H]3C(C)(C)[C@H](Oc4ccc(C#N)c(Cl)c4)C3(C)C)cn2)CC1)C(=O)N1C[C@H](O)C[C@H]1C(=O)NCc1ccc(C2CCC2)cc1` [Example 758, N-((1r,3r)-3-(3-chloro-4-cyanophenoxy)-2,2,4,4-tetramethylcyclobutyl)-6-(4-(2-(2-(((S)-1-((2S,4R)-2-((4-cyclobutylbenzyl)carbam-oyl)-4-hydroxypyrrolidin-1-yl)-3,3-dimethyl-1-oxobutan-2-yl)amino)-2-oxoethoxy)ethyl)pipera-zin-1-yl)nicotinamide]: the DC50 (VCaP cells) is more than 501 nM. Besides, the greatest degradation seen (Dmax) under setting [1] is less than 25%.
Consider `CC(C)(C)[C@H](NC(=O)COCCN1CCN(c2ccc(C(=O)N[C@H]3C(C)(C)[C@H](Oc4ccc(C#N)c(Cl)c4)C3(C)C)cn2)CC1)C(=O)N1C[C@H](O)C[C@H]1C(=O)NCc1ccc(C2CCCC2)cc1` [Example 759, N-((1r,3r)-3-(3-chloro-4-cyanophenoxy)-2,2,4,4-tetramethylcyclobutyl)-6-(4-(2-(2-(((S)-1-((2S,4R)-2-((4-cyclopentylbenzyl)car-bamoyl)-4-hydroxypyrrolidin-1-yl)-3,3-dimethyl-1-oxobutan-2-yl)amino)-2-oxoethoxy)ethyl)pipera-zin-1-yl)nicotinamide], for which, for the setting “VCaP cells”, the DC50 is more than 501 nM. Also, the Dmax under setting [1] was less than 25%.
`CC(C)(C)[C@H](NC(=O)COCCN1CCN(c2ccc(C(=O)N[C@H]3C(C)(C)[C@H](Oc4ccc(C#N)c(Cl)c4)C3(C)C)cn2)CC1)C(=O)N1C[C@H](O)C[C@H]1C(=O)NCc1ccc(C2CCOCC2)cc1` [Example 760, N-((1r,3r)-3-(3-chloro-4-cyanophenxoy)-2,2,4,4-tetramethylcyclobutyl) 6-(4-(2-(2-(((S)-1-((2S,4R)-4-hydroxy-2-((4-(tetrahydro-2H-pyran-4-yl)benzyl)carbamoyl)pyrrolidin-1-yl)-3,3-dimethyl-1-oxobutan-2-yl)amino)-2-oxoethoxy)ethyl)pipera-zin-1-yl)nicotinamide]: the DC50 (VCaP cells) is more than 501 nM. For the same compound, the maximal degradation (Dmax) under setting [1] is 26 to 50%.
For the compound `Cc1ncsc1-c1ccc(CNC(=O)[C@@H]2C[C@@H](O)CN2C(=O)[C@@H](C(C)C)N2Cc3ccc(N4CCN(CCCc5ccc(C(=O)N[C@H]6C(C)(C)[C@H](Oc7ccc(C#N)c(C(F)(F)F)c7)C6(C)C)cc5)CC4)cc3C2=O)cc1` [Example 761, (2S,4R)-1-((R)-2-(6-(4-(3-(4-(((1r,3r)-3-(4-cyano-3-(trifluoromethyl)phenxoy)-2,2,4,4-tetramethylcyclobutyl)carbamoyl)phenyl)propyl)piperazin-1-yl)-1-oxoisoindolin-2-yl)-3-methylbutanoyl)-4-hydroxy-N-(4-(4-methylthiazol-5-yl)benzyl)pyrrolidine-2-carboxamide], the DC50 (VCaP cells) is more than 501 nM. In addition, under setting [2], the maximal degradation (Dmax) was less than 25%.
`Cc1ncsc1-c1ccc(CNC(=O)[C@@H]2C[C@@H](O)CN2C(=O)[C@H](C(C)C)N2Cc3ccc(N4CCN(CCCc5ccc(C(=O)N[C@H]6C(C)(C)[C@H](Oc7ccc(C#N)c(C(F)(F)F)c7)C6(C)C)cc5)CC4)cc3C2=O)cc1` [Example 762, (2S,4R)-1-((S)-2-(6-(4-(3-(4-(((1r,3r)-3-(4-cyano-3-(trifluoromethyl)phenoxy)-2,2,4,4-tetramethylcyclobutyl)carbamoyl)phenyl)propyl)piperazin-1-yl)-1-oxoisoindolin-2-yl)-3-methylbutanoyl)-4-hydroxy-N-(4-(4-methylthiazol-5-yl)benzyl)pyrrolidine-2-carboxamide]: where the note is “VCaP cells”, the 50% degradation concentration (DC50) is more than 501 nM. The Dmax under setting [2] is less than 25%.
